Results: paper PMC6268585, “Synthesis, Molecular Properties Prediction, and Anti-staphylococcal Activity of N-Acylhydrazones and New 1,3,4-Oxadiazole Derivatives” (Molecules, 2012)
Converted amounts (≈) assume the structure as drawn. Like-named read-outs stand apart in the source and are kept apart here.

What was measured:
S. aureus 007 (MARSA) = test: MIC/MBC by broth microdilution, clinical strain 007; type: cell-based; conditions: Staphylococcus aureus; for MBC: read-out: Minimum Bactericidal Concentration (MBC); for MIC: read-out: Minimum Inhibitory Concentration (MIC)
Procedure: (§1) The effluxing strains were kindly provided by Professor Simon Gibbons (University of London, London, UK), and the MARSA strains were obtained from the culture collection of the Laboratory of Microorganism Genetics (Department of Molecular Biology, Federal University of Paraíba). All strains were maintained on blood agar base slants (BAB, Difco Laboratories Ltd., Brazil), and prior to use, the cells were grown overnight at 37 °C in brain heart infusion broth (BHI, Difco Laboratories Ltd., Detroit, MI, USA).
(§2) The stock solutions of the compounds were prepared in DMSO which at its highest final concentration after dilution in the broth (4%) caused no inhibition of bacterial growth. The minimum inhibitory concentrations (MICs) of the compounds were determined in BHI by microdilution assay using a suspension of ca. 10^5 cfu/mL and a drug concentration range of 256 to 0.5 μg/mL (two-fold serial dilutions). The MIC is defined as the lowest concentration at which no growth is observed. The dye resazurin was used for better visualization of the bacterial growth. […] The minimum bactericidal concentration (MBC) is defined as the lowest drug concentration that gives no growth on the agar.

[1] = test system: S. aureus IS-58 (TetK tetracycline efflux protein); test: MIC/MBC by broth microdilution, strain IS-58; type: cell-based; conditions: Staphylococcus aureus; for MBC: read-out: Minimum Bactericidal Concentration (MBC); for MIC: read-out: Minimum Inhibitory Concentration (MIC)
Procedure: as §1, §2

[2] = test system: S. aureus RN-4220 (plasmid pUL5054, MsrA macrolide efflux protein); test: MIC/MBC by broth microdilution, strain RN-4220; type: cell-based; conditions: Staphylococcus aureus; for MBC: read-out: Minimum Bactericidal Concentration (MBC); for MIC: read-out: Minimum Inhibitory Concentration (MIC)
Procedure: as §1, §2

S. aureus 05H (MARSA) = test: MIC/MBC by broth microdilution, clinical strain 05H; type: cell-based, Staphylococcus aureus; conditions: for MIC / MBC: Staphylococcus aureus, 5 h; for MBC: read-out: Minimum Bactericidal Concentration (MBC)
Procedure: as §1, §2

[3] = test system: S. aureus SA-1199B (overexpresses the NorA efflux protein); test: MIC/MBC by broth microdilution, strain SA-1199B; type: cell-based; conditions: Staphylococcus aureus; for MBC: read-out: Minimum Bactericidal Concentration (MBC); for MIC: read-out: Minimum Inhibitory Concentration (MIC)
Procedure: as §1, §2

[4] = read-out: Minimum Inhibitory Concentration (MIC)
[5] = strain 007, first number of cell MIC-MBC
[6] = strain 007, second number of cell MIC-MBC

Row | SMILES | MBC (S. aureus 007 (MARSA)) [µg/mL] | MIC (S. aureus 007 (MARSA)) [µg/mL] | MBC [1] [µg/mL] | MIC [1] [µg/mL] | MBC [2] [µg/mL] | MIC [2] [µg/mL] | MIC (S. aureus 05H (MARSA)) [µg/mL] | MBC (S. aureus 05H (MARSA)) [µg/mL] | MIC (S. aureus 05H (MARSA); [4]) [µg/mL] | MBC [3] [µg/mL] | MIC [3] [µg/mL] | MIC (S. aureus 007 (MARSA); [5]) [µg/mL] | MBC (S. aureus 007 (MARSA); [6]) [µg/mL] | fold more potent than the standard chloramphenicol (S. aureus 05H (MARSA); strain MARSA (05H)) [fold] | melting point [°C]
1 | O=C(N[C@H](CO)[C@H](O)c1ccc([N+](=O)[O-])cc1)C(Cl)Cl [Chloramphenicol, chloramphenicol, reference compound] | 128 (≈ 396 µM) | 64 (≈ 198 µM) | 128 (≈ 396 µM) | 64 (≈ 198 µM) | 128 (≈ 396 µM) | 64 (≈ 198 µM) | 64 (≈ 198 µM) | 128 (≈ 396 µM) | 64 (≈ 198 µM) | 64 (≈ 198 µM) | 64 (≈ 198 µM) |  |  |  | 
2 | O=C(NN=Cc1ccc([N+](=O)[O-])o1)c1ccccc1 [Compound 4a, N′-((5-nitrofuran-2-yl)methylene)benzohydrazide] |  |  |  |  |  |  |  | 8 (≈ 30.9 µM) | 8 (≈ 30.9 µM) | 16 (≈ 61.7 µM) | 16 (≈ 61.7 µM) | 8 (≈ 30.9 µM) | 8 (≈ 30.9 µM) |  | 
3 | Cc1ccc(C(=O)NN=Cc2ccc([N+](=O)[O-])o2)cc1 [Compound 4b, 4-Methyl-N′-((5-nitrofuran-2-yl)methylene)benzohydrazide] |  |  |  |  |  |  |  | 4 (≈ 14.6 µM) | 4 (≈ 14.6 µM) | 32 (≈ 117 µM) | 16 (≈ 58.6 µM) | 8 (≈ 29.3 µM) | 8 (≈ 29.3 µM) |  | 
4 | O=C(NN=Cc1ccc([N+](=O)[O-])o1)c1ccc([N+](=O)[O-])cc1 [Compound 4c, 4-Nitro-N′-((5-nitrofuran-2-yl)methylene)benzohydrazide] |  |  |  | 16 (≈ 52.6 µM) | 32 (≈ 105 µM) | 16 (≈ 52.6 µM) |  | 8 (≈ 26.3 µM) | 8 (≈ 26.3 µM) | 32 (≈ 105 µM) | 32 (≈ 105 µM) | 8 (≈ 26.3 µM) | 16 (≈ 52.6 µM) |  | 
5 | O=C(NN=Cc1ccc([N+](=O)[O-])o1)c1ccc(Cl)cc1 [Compound 4d, 4-Chloro-N′-((5-nitrofuran-2-yl)methylene)benzohydrazide] |  |  | 16 (≈ 54.5 µM) |  |  |  | 4 (≈ 13.6 µM) | 4 (≈ 13.6 µM) | 4 (≈ 13.6 µM) | 16 (≈ 54.5 µM) | 16 (≈ 54.5 µM) | 8 (≈ 27.2 µM) | 8 (≈ 27.2 µM) | 16 | 
6 | COc1ccc(C(=O)NN=Cc2ccc([N+](=O)[O-])o2)cc1 [Compound 4e, 4-Methoxy-N′-((5-nitrofuran-2-yl)methylene)benzohydrazide] |  |  |  |  | 16 (≈ 55.3 µM) | 16 (≈ 55.3 µM) |  | 4 (≈ 13.8 µM) | 4 (≈ 13.8 µM) | 16 (≈ 55.3 µM) | 16 (≈ 55.3 µM) | 8 (≈ 27.7 µM) | 8 (≈ 27.7 µM) |  | 
7 | CC(=O)N1N=C(c2ccccc2)OC1c1ccc([N+](=O)[O-])o1 (stereo not drawn) [Compound 5a, 1-(2-(5-Nitrofuran-2-yl)-5-phenyl-1,3,4-oxadiazol-3(2H)-yl)ethanone] |  |  | 16 (≈ 53.1 µM) | 16 (≈ 53.1 µM) |  | 16 (≈ 53.1 µM) |  | 16 (≈ 53.1 µM) | 16 (≈ 53.1 µM) |  |  | 32 (≈ 106 µM) | 32 (≈ 106 µM) |  | 178 to 180
8 | CC(=O)N1N=C(c2ccc(C)cc2)OC1c1ccc([N+](=O)[O-])o1 (stereo not drawn) [Compound 5b, 1-(2-(5-Nitrofuran-2-yl)-5-(methylphenyl)-1,3,4-oxadiazol-3(2H)-yl)ethanone] |  |  |  |  |  |  |  |  |  |  |  |  |  |  | 160 to 162
9 | CC(=O)N1N=C(c2ccc([N+](=O)[O-])cc2)OC1c1ccc([N+](=O)[O-])o1 (stereo not drawn) [Compound 5c, 1-(2-(5-Nitrofuran-2-yl)-5-(4-nitrophenyl)-1,3,4-oxadiazol-3(2H)-yl)ethanone] |  |  |  |  | 32 (≈ 92.4 µM) |  |  | 8 (≈ 23.1 µM) | 8 (≈ 23.1 µM) | 32 (≈ 92.4 µM) | 32 (≈ 92.4 µM) | 16 (≈ 46.2 µM) | 16 (≈ 46.2 µM) |  | 188 to 190
10 | CC(=O)N1N=C(c2ccc(Cl)cc2)OC1c1ccc([N+](=O)[O-])o1 (stereo not drawn) [Compound 5d] |  |  |  |  | 32 (≈ 95.3 µM) |  | 8 (≈ 23.8 µM) | 8 (≈ 23.8 µM) | 8 (≈ 23.8 µM) | 32 (≈ 95.3 µM) |  | 16 (≈ 47.7 µM) | 16 (≈ 47.7 µM) |  | 188 to 190
11 | COc1ccc(C2=NN(C(C)=O)C(c3ccc([N+](=O)[O-])o3)O2)cc1 (stereo not drawn) [Compound 5e, 1-(2-(5-Nitrofuran-2-yl)-5-(methoxyphenyl)-1,3,4-oxadiazol-3(2H)-yl)ethanone] |  |  |  |  |  |  |  |  |  |  |  |  |  |  | 181 to 183
